Patent publication US7521478B2, “Total synthesis of myriaporones” (Pharma Mar, S.A.U., priority 2002, dated 2009)
Like-named read-outs stand apart in the source and are kept apart here.

Key:
Assay type in all cases: cell-based
SK-BR-3 = experiment: Inhibition of cell growth by colorimetric SRB assay, SK-BR-3; conditions: SK-BR-3, 48 hours exposure
Text: (§1) The finality of these assays is to interrupt the growth of a “in vitro” tumor cell culture by means a continued exhibition of the cells to the sample to be testing.
(§2) Inhibition of Cell Growth by Colorimetric Assay.
(§3) A colorimetric type of assay, using sulforhodamine B (SRB) reaction has been adapted for a quantitative measurement of cell growth and viability (following the technique described by P. A. Skehan, et al., J. Natl. CancerInst. 1990, 82, 1107-1112).
(§4) This form of assay employs 96 well cell culture microplates of 9 mm diameter (T. Mosmann et al., J. of Immuological Methods 1983, 65, 55-63; G. T. Faircloth et al., J. of Tissue and Culture Methods 1988, 11, 201-205). Most of the cell lines are obtained from American Type Culture Collection (ATCC) derived from different human cancer types.
(§5) Cells are maintained in RPMI 1640 10% FBS, supplemented with 0.1 g/L penicillin and 0.1 g/L streptomycin sulfate and then incubated at 37° C., 5% CO2 and 98% humidity. For the experiments, cells were harvested from subconfluent cultures using trypsin and resuspended in fresh medium before plating.
(§6) Cells are seeded in 96 well microtiter plates, at 5×10^3 cells per well in aliquots of 195 μL medium, and they are allowed to attach to the plate surface by growing in drug free medium for 18 hours. Afterward, samples are added in aliquots of 5 μL in a ranging from 10 to 10^−8 μg/mL, dissolved in DMSO/EtOH/PBS (0.5:0.5:99). After 48 hours exposure, the antitumor effect are measured by the SRB methodology: cells are fixed by adding 50 μL of cold 50% (wt/vol) trichloroacetic acid (TCA) and incubated for 60 minutes at 4° C. Plates are washed with deionizer water and dried. One hundred μl of SRB solution (0.4% wt/vol in 1% acetic acid) is added to each microliter well and incubated for 10 minutes at room temperature. Unbound SRB is removed by washing with 1% acetic acid. Plates are air dried and bound stain is solubilized with Tris buffer. Optical densities are read on a automated spectrophotometric plate reader at a single wavelength of 490 nm.
(§7) The values for mean +/−SD of data from triplicate wells are calculated. Some parameters for cellular responses can be calculated: GI=growth inhibition, TGI=total growth inhibition (cytostatic effect) and LC=cell killing (cytotoxic effect).

HeLa-APL = experiment: Inhibition of cell growth by colorimetric SRB assay, HELA-APL; conditions: Homo sapiens; for CC50: cell killing, read-out: LC50 (the source's name); for IC (total growth inhibition): read-out: TGI
Text: as §1, §2, §3, §4, §5, §6, §7

DU-145 = experiment: Inhibition of cell growth by colorimetric SRB assay, DU-145; conditions: Homo sapiens, DU-145, 48 hours exposure; for CC50: cell killing, read-out: LC50 (the source's name); for IC (total growth inhibition): read-out: TGI
Text: as §1, §2, §3, §4, §5, §6, §7

LNCaP = experiment: Inhibition of cell growth by colorimetric SRB assay, LN-caP; conditions: Homo sapiens, LN-caP, 48 hours exposure; for CC50: cell killing, read-out: LC50 (the source's name); for IC (total growth inhibition): read-out: TGI
Text: as §1, §2, §3, §4, §5, §6, §7

HeLa = experiment: Inhibition of cell growth by colorimetric SRB assay, HELA; conditions: Homo sapiens, HELA, 48 hours exposure; for CC50: cell killing, read-out: LC50 (the source's name); for IC (total growth inhibition): read-out: TGI
Text: as §1, §2, §3, §4, §5, §6, §7

IGROV-ET = experiment: Inhibition of cell growth by colorimetric SRB assay, IGROV-ET; conditions: Homo sapiens, IGROV-ET, 48 hours exposure; for CC50: cell killing, read-out: LC50 (the source's name); for IC (total growth inhibition): read-out: TGI
Text: as §1, §2, §3, §4, §5, §6, §7

HT-29 = experiment: Inhibition of cell growth by colorimetric SRB assay, HT-29; conditions: Homo sapiens, HT-29, 48 hours exposure; for CC50: cell killing, read-out: LC50 (the source's name); for IC (total growth inhibition): read-out: TGI
Text: as §1, §2, §3, §4, §5, §6, §7

A-549 = experiment: Inhibition of cell growth by colorimetric SRB assay, A-549; conditions: Homo sapiens, A549, A-549, 48 hours exposure; for CC50: cell killing, read-out: LC50 (the source's name); for IC (total growth inhibition): read-out: TGI
Text: as §1, §2, §3, §4, §5, §6, §7

SK-MEL-28 = experiment: Inhibition of cell growth by colorimetric SRB assay, MEL-28; conditions: Homo sapiens, SK-MEL-28, MEL-28, 48 hours exposure; for CC50: cell killing, read-out: LC50 (the source's name); for IC (total growth inhibition): read-out: TGI
Text: as §1, §2, §3, §4, §5, §6, §7

K-562 = experiment: Inhibition of cell growth by colorimetric SRB assay, K-562; conditions: Homo sapiens, K562, K-562, 48 hours exposure; for CC50: cell killing, read-out: LC50 (the source's name); for IC (total growth inhibition): read-out: TGI
Text: as §1, §2, §3, §4, §5, §6, §7

LoVo = experiment: Inhibition of cell growth by colorimetric SRB assay, LOVO; conditions: Homo sapiens, LOVO, 48 hours exposure; for LC50: cell killing, read-out: LC50; for IC (total growth inhibition): read-out: TGI
Text: as §1, §2, §3, §4, §5, §6, §7

IGROV = experiment: Inhibition of cell growth by colorimetric SRB assay, IGROV; conditions: Homo sapiens, 48 hours exposure; for CC50: cell killing, read-out: LC50 (the source's name); for IC (total growth inhibition): read-out: TGI
Text: as §1, §2, §3, §4, §5, §6, §7

LoVo-Dox = experiment: Inhibition of cell growth by colorimetric SRB assay, LOVO-DOX; conditions: Homo sapiens, LOVO-DOX, 48 hours exposure; for LC50 (concentration for 50% cell killing): read-out: LC50; for IC (total growth inhibition): read-out: TGI
Text: as §1, §2, §3, §4, §5, §6, §7

PANC-1 = experiment: Inhibition of cell growth by colorimetric SRB assay, PANC-1; conditions: Homo sapiens, PANC-1, 48 hours exposure; for CC50: cell killing, read-out: LC50 (the source's name); for IC (total growth inhibition): read-out: TGI
Text: as §1, §2, §3, §4, §5, §6, §7

C/C=C\[C@H](C)[C@H]1O[C@@]1(C)[C@@H](O)[C@@H](CO)C(=O)[C@H](CO)[C@@H](O)CC(=O)CC [3a + 4a] gave a GI50 (SK-BR-3; Homo sapiens) of 0.0303 µM, a CC50 (SK-BR-3; Homo sapiens, cell killing, read-out: LC50 (the source's name)) of 5.34 µM and a TGI (SK-BR-3; total growth inhibition) of 4.75E−07 Molar. For the same molecule, the CC50 (HeLa-APL; HELA-APL, 48 hours exposure) was 14.7 µM, the GI50 (HeLa-APL; HELA-APL, 48 hours exposure, read-out: GI50) was 0.0733 µM and the IC (total growth inhibition) (HeLa-APL; HELA-APL, 48 hours exposure, total growth inhibition) was 0.983 µM. It also gave a GI50 (DU-145) of 0.0631 µM, a CC50 (DU-145) of 2.03 µM and an IC (total growth inhibition) (DU-145) of 0.403 µM. It also gave a GI50 (LNCaP) of 0.0819 µM, a CC50 (LNCaP) of 5.32 µM and an IC (total growth inhibition) (LNCaP) of 0.553 µM. The GI50 (HeLa) was 0.0728 µM, the CC50 (HeLa) was 7.14 µM and the IC (total growth inhibition) (HeLa) was 0.55 µM. The GI50 (IGROV-ET) was 0.1 µM, the CC50 (IGROV-ET) was 26.8 µM and the IC (total growth inhibition) (IGROV-ET) was 1.07 µM. The GI50 (HT-29) was 0.0601 µM, the CC50 (HT-29) was 26.8 µM and the IC (total growth inhibition) (HT-29) was 1.18 µM. For the same molecule, the GI50 (A-549) was 0.144 µM, the CC50 (A-549) was 15.6 µM and the IC (total growth inhibition) (A-549) was 2.59 µM. The GI50 (SK-MEL-28) was 0.0754 µM, the CC50 (SK-MEL-28) was 12 µM and the IC (total growth inhibition) (SK-MEL-28) was 0.832 µM. It also gave a GI50 (K-562) of 0.521 µM, a CC50 (K-562) of 8.4 µM and an IC (total growth inhibition) (K-562) of 1.46 µM. It also gave a GI50 (LoVo) of 0.0822 µM, an LC50 (LoVo) of 17.7 µM and an IC (total growth inhibition) (LoVo) of 1.35 µM. It also gave a GI50 (IGROV) of 0.073 µM, a CC50 (IGROV) of 3.92 µM and an IC (total growth inhibition) (IGROV) of 0.376 µM. For the same molecule, the GI50 (LoVo-Dox) was 0.152 µM, the LC50 (concentration for 50% cell killing) (LoVo-Dox) was 26.8 µM and the IC (total growth inhibition) (LoVo-Dox) was 1.36 µM. For the same molecule, the GI50 (PANC-1) was 0.0897 µM, the CC50 (PANC-1) was 26.8 µM and the IC (total growth inhibition) (PANC-1) was 2.95 µM.
With C/C=C\[C@H](C)[C@H]1OC1(C)[C@@H](O[Si](C)(C)C(C)(C)C)[C@@H](COC(C)=O)C(=O)[C@H](COC(C)=O)[C@H](O)CC(=O)CC (stereo partly drawn) [Compound 44] the GI50 (HeLa-APL; 48 h) was 3.77 µM, the IC (total growth inhibition) (HeLa-APL; 48 h) was 9.83 µM and the CC50 (HeLa-APL; HELA-APL, 48 hours exposure) was 17.5 µM. For the same molecule, the GI50 (DU-145) was 4.99 µM, the CC50 (DU-145) was 17.5 µM and the IC (total growth inhibition) (DU-145) was 10.4 µM. For the same molecule, the GI50 (LNCaP) was 3.77 µM, the CC50 (LNCaP) was 16.6 µM and the IC (total growth inhibition) (LNCaP) was 7.88 µM. It also gave a GI50 (HeLa) of 3.91 µM, a CC50 (HeLa) of 14.7 µM and an IC (total growth inhibition) (HeLa) of 7.59 µM. For the same molecule, the GI50 (IGROV-ET) was 4.15 µM, the CC50 (IGROV-ET) was 15.8 µM and the IC (total growth inhibition) (IGROV-ET) was 8.09 µM. It also gave a GI50 (HT-29) of 6.22 µM, a CC50 (HT-29) of 17 µM and an IC (total growth inhibition) (HT-29) of 17.5 µM. It also gave a GI50 (A-549) of 4.01 µM, a CC50 (A-549) of 15.4 µM and an IC (total growth inhibition) (A-549) of 7.87 µM. The GI50 (SK-MEL-28) was 3.84 µM, the CC50 (SK-MEL-28) was 12.6 µM and the IC (total growth inhibition) (SK-MEL-28) was 6.96 µM. It also gave a GI50 (K-562) of 6.1 µM, a CC50 (K-562) of 17.5 µM and an IC (total growth inhibition) (K-562) of 11.4 µM. It also gave a GI50 (LoVo) of 4.05 µM, an LC50 (LoVo) of 17.5 µM and an IC (total growth inhibition) (LoVo) of 8.99 µM. It also gave a GI50 (IGROV) of 4.13 µM, a CC50 (IGROV) of 14.2 µM and an IC (total growth inhibition) (IGROV) of 7.67 µM. For the same molecule, the GI50 (LoVo-Dox) was 4.27 µM, the LC50 (concentration for 50% cell killing) (LoVo-Dox) was 17.5 µM and the IC (total growth inhibition) (LoVo-Dox) was 8.9 µM. For the same molecule, the GI50 (PANC-1) was 3.73 µM, the CC50 (PANC-1) was 13.8 µM and the IC (total growth inhibition) (PANC-1) was 7.2 µM.
